# Data: ChEMBL document CHEMBL3227967, “Quantitative structure-activity relationships in 1-aryl-2-(alkylamino)ethanol antimalarials” (J Med Chem, 1979)
# Test system: Plasmodium berghei
# Assay: Antimalarial activity against Plasmodium berghei
# Format: functional
row,Structure (SMILES),log(1/C)
1,CCCCCCCN(CCCCCCC)CC(O)c1cccc2c1c(Br)cc1ccccc12 (stereo not drawn),2.27
2,CCCCN(CCCC)CC(O)c1cc2c(Br)cccc2c2cc(Br)ccc12 (stereo not drawn),2.9
3,CCCCN(CCCC)CC(O)c1c(Br)c2ccccc2c2cc(Br)ccc12 (stereo not drawn),3.23
4,OC(CC1CCCCN1)c1cc(-c2ccccc2)nc2cc(Cl)ccc12 (stereo not drawn),2.72
5,Cc1cccc2c(C(O)CC3CCCCN3)cc(-c3ccc(Cl)cc3)nc12 (stereo not drawn),3.67
6,CCCCN(CCCC)CC(O)c1cc(C(F)(F)c2ccccc2)nc2c(Cl)cc(Cl)cc12 (stereo not drawn),2.61
7,Cc1cccc2c(C(O)CC3CCCCN3)cc(-c3ccccc3)nc12 (stereo not drawn),3.38
8,CCCCN(CCCC)CC(O)c1cc(-c2ccc(C(F)(F)F)cc2)nc(-c2ccc(C(F)(F)F)cc2)c1 (stereo not drawn),4.09
9,CCCC(CCC)NCC(O)c1cc(-c2ccc(C(F)(F)F)cc2)nc(C(F)(F)F)c1 (stereo not drawn),4.47
10,CNCC(O)c1cc2ccc(C(F)(F)F)cc2c2cc(C(F)(F)F)ccc12 (stereo not drawn),4.23
11,CCCCN(CCCC)CC(O)c1cc(Oc2cccc(C(F)(F)F)c2)cc2c(Cl)cc(Cl)cc12 (stereo not drawn),2.52
12,OC(CNC12CC3CC(CC(C3)C1)C2)c1cc(-c2ccc(Cl)cc2)nc(-c2ccc(Cl)cc2)c1 (stereo not drawn),3.23
13,CCCCN(CCCC)CC(O)c1cc(-c2ccc(C(F)(F)F)cc2)nc2c(Cl)cc(Cl)cc12 (stereo not drawn),4.04
14,CCCCCCCN(CCCCCCC)CC(O)c1cc2ccc(I)cc2c2cc(C(F)(F)F)ccc12 (stereo not drawn),3.55
15,CCCCN(CCCC)CC(O)c1cc(-c2ccc(Cl)cc2)nc2cc(Cl)ccc12 (stereo not drawn),3.91
16,CCCCCCCN(CCCCCCC)CC(O)c1cccc2c3ccccc3c3ccccc3c12 (stereo not drawn),2.28
17,OC(CC1CCCCN1)c1cc2cc(Cl)c(Cl)cc2c2cc(Cl)ccc12 (stereo not drawn),3.69
18,CCC(C)NCC(O)c1cc(-c2ccc(C(F)(F)F)cc2)nc(-c2ccc(C(F)(F)F)cc2)c1 (stereo not drawn),4.15
19,CCCCN(CCCC)CC(O)c1cc(-c2ccc(Cl)cc2)nc2c(OC)ccc(OC)c12 (stereo not drawn),2.52
20,CC1CCCNC1CC(O)c1cc(-c2ccccc2)nc2cc(Cl)ccc12 (stereo not drawn),3.52
21,CCCCNCC(O)c1cc(-c2ccc(Cl)cc2)nc2cc(Cl)c(OC)cc12 (stereo not drawn),3.88
22,CCCCN(CCCC)CC(O)c1cc(-c2ccc(Cl)c(Cl)c2)nc2ccc(OC)cc12 (stereo not drawn),3.33
23,OC(CC1CCCCN1)c1cc2c(Cl)c(Cl)c(Cl)c(Cl)c2c2cc(C(F)(F)F)ccc12 (stereo not drawn),4.75
24,Cc1cc(C)c2nc(-c3ccc(Cl)cc3)cc(C(O)CC3CCCCN3)c2c1 (stereo not drawn),4.04
25,OC(CC1CCCCN1)c1cc2cc(C(F)(F)F)cc(C(F)(F)F)c2c2ccc(Cl)cc12 (stereo not drawn),4.82

row,Structure (SMILES),log(1/C)
1,CCCCN(CCCC)CC(O)c1cc(-c2ccc(Cl)cc2)nc2cc(OC)c(Cl)cc12 (stereo not drawn),2.76
2,OC(CC1CCCCN1)c1c2c(nc3c(Cl)cc(Cl)cc13)-c1cccc(Cl)c1CC2 (stereo not drawn),3.6
3,CCCCCCN(CCCCCC)CC(O)c1cc(-c2ccc(Cl)cc2)nc2c(Cl)cc(Cl)cc12 (stereo not drawn),3.37
4,CCCCN(CCCC)CC(O)c1cc2ccc(Br)cc2c2cc(Cl)sc12 (stereo not drawn),3.43
5,CCN(CC)CC(O)c1ccnc2cc(Cl)ccc12 (stereo not drawn),3.03
6,CCCCN(CCCC)CC(O)c1cc2cc(Br)c(Br)cc2c2cc(Br)ccc12 (stereo not drawn),3.97
7,OC(CC1CCCCN1)c1cc2ccccc2c2ccc(C(F)(F)F)cc12 (stereo not drawn),3.22
8,CCCCNCCC(O)c1cc2ccc(C(F)(F)F)cc2c2cc(C(F)(F)F)ccc12 (stereo not drawn),4.73
9,COc1ccc(OC)c2c(C(O)CNC34CC5CC(CC(C5)C3)C4)cc(-c3ccc(Cl)cc3)nc12 (stereo not drawn),2.48
10,OC(CC1CCCCN1)c1cc2cc(Br)ccc2c2cc(Br)ccc12 (stereo not drawn),4.13
11,CCCCN(CCCC)CC(O)c1cc(C(=O)c2cccc(Cl)c2Cl)nc2c(C(F)(F)F)cc(Cl)cc12 (stereo not drawn),4.52
12,CCCCCCCN(CCCCCCC)CC(O)c1c2ccccc2cc2ccccc12 (stereo not drawn),3.07
13,CCCCN(CCCC)CC(O)c1cc(-c2ccc(Cl)cc2)nc2c(C(F)(F)F)cc(OC)cc12 (stereo not drawn),3.93
14,COc1cc2c(C(O)CC3CCCCN3)cc(-c3ccc(Cl)cc3)cc2cc1Cl (stereo not drawn),3
15,CC(C)CCCN(CCC(C)C)CC(O)c1cc(-c2ccc(C(F)(F)F)cc2)nc(C(F)(F)F)c1 (stereo not drawn),3.04
16,CCCCN(CCCC)CC(O)c1cc(-c2ccc(Cl)cc2)cc2cc(Cl)ccc12 (stereo not drawn),4.24
17,CCCCN(CCCC)CC(O)c1cc(C2(C)CCCC2)nc2c(Cl)cc(Cl)cc12 (stereo not drawn),2.66
18,CCCCN(CCCC)CC(O)c1cc2c(Cl)cc(Cl)cc2c2cc(Cl)ccc12 (stereo not drawn),3.72
19,CCCCN(CCCC)CC(O)c1cc2ccsc2c2ccccc12 (stereo not drawn),2.38
20,CCCCNCC(O)c1cc(-c2ccc(Br)cc2)nc(-c2ccc(C(F)(F)F)cc2)c1 (stereo not drawn),3.94
21,CCCCN(C)CC(O)c1cc(-c2ccc(Cl)cc2)nc(-c2ccc(Cl)cc2)c1 (stereo not drawn),3.59
22,CCCCCCCN(CCCCCCC)CC(O)c1cc2ccc(Cl)cc2c2cc(C(F)(F)F)ccc12 (stereo not drawn),3.61
23,CCCCNCC(O)c1cc2ccc(C(F)(F)F)cc2c2ccsc12 (stereo not drawn),2.51
24,CC(C)NCCC(O)c1cc2ccc(C(F)(F)F)cc2c2cc(C(F)(F)F)ccc12 (stereo not drawn),3.89
25,CCCCNCC(O)c1cc(-c2cccc(C(F)(F)F)c2)nc(C(F)(F)F)c1 (stereo not drawn),3.69

row,Structure (SMILES),log(1/C)
1,CCCCN(CCCC)CC(O)c1cc2ccncc2c2c(Cl)cc(Cl)cc12 (stereo not drawn),2.57
2,OC(CC1CCCCN1)c1cc(C(F)(F)F)nc2ccc(Cl)cc12 (stereo not drawn),2.53
3,Cc1cccc2c(C(O)CC3CCCCN3)cc(-c3ccc(F)cc3)nc12 (stereo not drawn),3.72
4,CCCCCN(CCCCC)CC(O)c1cc(-c2ccccc2)nc2ccccc12 (stereo not drawn),2.57
5,OC(CNC12CC3CC(CC(C3)C1)C2)c1cc(-c2ccccc2)nc2c(Cl)cc(Cl)cc12 (stereo not drawn),2.36
6,CCCCCCN(CCCCCC)CC(O)c1cc(-c2ccc(Cl)cc2)nc(-c2ccc(Cl)cc2)c1 (stereo not drawn),3.18
7,Cc1cccc2c(C(O)CC3CCCCN3)cc(C(F)(F)F)nc12 (stereo not drawn),2.93
8,CCCCN(CCCC)CC(O)c1cccc2c1cc(Br)c1ccccc12 (stereo not drawn),2.15
9,CCCCCCCN(CCCCCCC)CC(O)c1cc2ccc(Br)cc2c2cc(Br)ccc12 (stereo not drawn),3.45
10,CCCCNCC(O)c1cc(C(F)(F)F)nc2c(C(F)(F)F)cccc12 (stereo not drawn),3.65
11,CCCCN(CCCC)CC(O)c1cc2ccc(C(F)(F)F)cc2c2cc(Cl)ccc12 (stereo not drawn),3.88
12,OC(CC1CCCNC1)c1cc2ccc(C(F)(F)F)cc2c2cc(C(F)(F)F)ccc12 (stereo not drawn),3.89
13,CCN(CC)CC(O)c1cc(-c2ccc(Cl)c(Cl)c2)nc2ccc(OC)cc12 (stereo not drawn),3.15
14,CN(C)CC(O)c1cc2cc(C(F)(F)F)cc(C(F)(F)F)c2c2ccccc12 (stereo not drawn),3.94
15,CCCCN(CCCC)CC(O)c1cc(-c2ccc(Cl)c(Cl)c2)nc2cc(OC)ccc12 (stereo not drawn),3.21
16,CCCCCCCN(CCCCCCC)CC(O)c1cc2ccsc2c2cc(Br)ccc12 (stereo not drawn),2.68
17,CCCCN(CCCC)CC(O)c1cc(-c2ccc(C(F)(F)F)cc2)nc(-c2ccc(C(F)(F)F)cc2)c1.O=C(O)CCC(=O)O (stereo not drawn),4.23
18,CCCCCCCN(CCCCCCC)CC(O)c1cc2ccc(C(F)(F)F)cc2c2cc(C(F)(F)F)ccc12 (stereo not drawn),3.89
19,OC(CC1CCCCN1)c1ccnc2c(Cl)cccc12 (stereo not drawn),2.01
20,OC(CC1CCCCN1)c1cc2cc3c(cc2c2cc(Cl)ccc12)OCO3 (stereo not drawn),3.14
21,CCCCN(CCCC)CC(O)c1cc2c(Cl)cc(Cl)cc2c2ccsc12 (stereo not drawn),3.2
22,CCCCN(CCCC)CC(O)c1cc(-c2ccc(Cl)cc2)cc2ccc(OC)cc12 (stereo not drawn),3.9
23,CCCCCCCN(CCCCCCC)CC(O)c1cc2ccc(Br)cc2c2sccc12 (stereo not drawn),2.67
24,OC(CC1CCCCN1)c1c2c(nc3c(Cl)cc(Cl)cc13)-c1ccc(Cl)cc1CC2 (stereo not drawn),3.69
25,CCCCCCCN(CCCCCCC)CC(O)c1cccc2c1ccc1ccccc12 (stereo not drawn),2.58

row,Structure (SMILES),log(1/C)
1,COc1ccc2nc(C(F)(F)F)cc(C(O)CC3CCCCN3)c2c1 (stereo not drawn),2.97
2,OC(CC1CCCCN1)c1cc(-c2ccccc2)nc2c(Cl)cccc12 (stereo not drawn),2.69
3,CCCCCCCN(CCCCCCC)CC(O)c1ccc2ccc3cccc(C(F)(F)F)c3c2c1 (stereo not drawn),2.58
4,CCCC(CCC)N(CC(O)c1cc(-c2ccc(C(F)(F)F)cc2)nc(-c2ccc(C(F)(F)F)cc2)c1)C(CCC)CCC (stereo not drawn),4.15
5,CCCCN(CCCC)CC(O)c1cc(-c2ccc(C(F)(F)F)cc2)nc(-c2ccc(Cl)c(Cl)c2)c1 (stereo not drawn),3.16
6,CCCCN(CCCC)CC(O)c1cc2ccc(F)cc2c2ccccc12 (stereo not drawn),2.43
7,CCCCN(CCCC)CC(O)c1cc2ccccc2c2c(Cl)cccc12 (stereo not drawn),2.77
8,CCCCCCCN(CCCCCCC)CC(O)c1cccc2c1ccc1ccc(C(F)(F)F)cc12 (stereo not drawn),2.34
9,CCCCN(CCCC)CC(O)c1cc(C23CC4CC(CC(C4)C2)C3)nc2ccc(Cl)cc12 (stereo not drawn),3.05
10,CCCCN(CCCC)CC(O)c1cc(-c2ccc(OC)c(OC)c2)nc2ccc(Cl)cc12 (stereo not drawn),3.33
11,CCCCNCC(O)c1cc(-c2ccccc2C(F)(F)F)nc(C(F)(F)F)c1 (stereo not drawn),3.78
12,Cc1cc(C)c2nc(Oc3ccc(Cl)cc3)cc(C(O)CC3CCCCN3)c2c1 (stereo not drawn),2.72
13,CCCCN(CCCC)CC(O)c1cccc2cc3cccc(Cl)c3cc12 (stereo not drawn),2.26
14,CCCCCCCN(CCCCCCC)CC(O)c1cc2ccc(Cl)cc2c2ccccc12 (stereo not drawn),2.44
15,CCCCN(CCCC)CC(O)c1cc2cc(Br)c(Br)cc2c2cc(C(F)(F)F)ccc12 (stereo not drawn),4.31
16,OC(CC1CCCCN1)c1cc2cccc(C(F)(F)F)c2c2ccc(Cl)cc12 (stereo not drawn),3.66
17,CCCCN(CCCC)CC(O)c1cc2cc(S(C)(=O)=O)ccc2c2cc(Cl)c(Cl)cc12 (stereo not drawn),3.74
18,CC(C)(C)NCCC(O)c1cc2ccc(C(F)(F)F)cc2c2cc(C(F)(F)F)ccc12 (stereo not drawn),4.73
19,CCCCN(CCCC)CC(O)c1cc2c(Cl)cc(Cl)cc2c2cc(C)sc12 (stereo not drawn),3.3
20,CCC(CC)NCC(O)c1cc(-c2ccc(C(F)(F)F)cc2)nc(C(F)(F)F)c1 (stereo not drawn),3.28
21,CCCCN(CCCC)CC(O)c1cc2c(Cl)cc(Cl)cc2c2cc(C(F)(F)F)ccc12 (stereo not drawn),4.29
22,CCCCN(CCCC)CC(O)c1cc(C(F)(F)F)nc2c(C(F)(F)F)cccc12 (stereo not drawn),3.6
23,CCCCCN(CCCCC)CC(O)c1cc2ccc(Cl)c(Cl)c2c2cc(C(F)(F)F)ccc12 (stereo not drawn),4.26
